# Source: publication PMC3718762, “Differential Disruption of EWS-FLI1 Binding by DNA-Binding Agents” (PLoS ONE, 2013)
# Starred links: 1 amine or outer side, 2 acyl side, 3 side chain; linkers in the order of their positions; H or OH if unused. Positions of bridges follow the written chain, without caps; N, C: chain ends. Non-standard residues stand in square brackets, D forms with d. Residues, ends and D or L forms follow the SMILES beside them. Chains are numbered I, II in the order given. Actinocin(9to1) = Cc1c2oc3c(C)ccc(C(=O)[*:1])c3nc-2c(C(=O)[*:2])c(N)c1=O; NMeV = CN[C@H](C(=O)O)C(C)C; Sar = CNCC(=O)O
# Experiments:
# NR0B1 promoter = assay: NR0B1-Luc firefly luciferase reporter assay in A673 cells; type: cell-based, human; settings: Homo sapiens, A673, 16 h, read-out: IC50 for inhibition of NR0B1 activity
# Text: The NR0B1 promoter was amplified from human genomic DNA using the 5′ primer- […] and 3′ primer - […]. NR0B1 promoter amplicon was cloned into the NheI and HindIII sites in the pGL.3Basic vector. The 5′ primer-[…] was used to amplify a truncated NR0B1 promoter in which the entire EWS-FLI1 binding region (GGAA repeats) was deleted to construct pGL.3b-NR0B1del. All constructs were confirmed by sequencing. All other plasmids were previously described.
# Ewing sarcoma A673 cells at 50% confluence in 100 mm dishes were transfected with both 5.8 µg of pGL.3b-NR0B1 and 0.2 µg of pGL.3b-Ubc-RL reporter plasmids as above. Eight hours post-transfection, cells were trypsinized and 600 ul (2×10^5) of cells were added to each well of 24 well plates. 5 µl of different concentration of compounds or DMSO control were added to each well. Each treatment was performed in triplicate. Cells were incubated for 16 hours, then cells were lysed in 100 µl of lysis buffer and 10 µl of cell lysate was used for the dual luciferase assay. Renilla luciferase activity was used as an internal control for normalization of nonspecific transcriptional inhibition or cytotoxic effects. Experiments were repeated three times. IC50 values were calculated using Prism (Graphpad).
# To determine the effect of compounds on EWS-FLI1 activity in cells, we used a reporter assay comprised of the NR0B1 promoter, a prototypical EWS-FLI1-regulated gene, driving expression of firefly luciferase. Renilla luciferase driven by the Ubiquitin C promoter (UbC-RL) was used as an internal control. Confirming prior studies, the NR0B1 promoter was verified to be highly responsive to EWS-FLI1, whereas the UbC promoter activity was not subject to regulation by EWS-FLI1 (Figure S1).
# NR0B1 mRNA = assay: Quantitative RT-PCR of endogenous NR0B1 mRNA in A673 cells; type: cell-based
# Experimental: (§1) Duplicate wells of A673 cells were treated overnight with different concentration of actinomycin D. RNA was extracted with absolutely mRNA purification kit from Stratagene. 0.5 µg total RNA was mixed with 1 µl iScript Reverse Transcriptase, 10 µl of 2× RT-PCR reaction mix for probes from Bio-Rad, 1 µl of NR0B1, RPS26 and TP53 probes from Life Technologies and H2O up to 20 µl total volume. RT-PCR was performed in an iCycler iQ with 50°C for 10 minutes for one cycle; 95°C, 15 seconds, 60°C 40 seconds for 40 cycles. Each RNA sample was technically duplicated, and relative abundance was calculated by the delta Ct method.
# [1] = tested on: RPS26 and TP53 transcripts; assay: Quantitative RT-PCR of control transcripts in A673 cells; type: cell-based; settings: actinomycin D treatment (Figure 2F)
# Experimental: as §1
# RPS26 and TP53 loci = assay: ChIP-qPCR, control loci in A673 cells; type: cell-based; settings: 5 nM, 4 hrs, anti-FLI1 ChIP
# Experimental: ChIP-qPCR was performed as previously described. Briefly, cells were treated with compounds for 4 hrs, then crosslinked, lysed, and chromatin fragmented. After ChIP, quantitative PCR was used to quantify NR0B1, p53, and RPS26 loci, and fold enrichment was determined by the formula: Fold enrichment = 2χ(Input Ct-ChIP Ct)/2χ(Input Ct-IgG Ct).
# We used chromatin immunoprecipitation coupled with quantitative PCR (ChIP-qPCR) to assess effects of actinomycin D on EWS-FLI1 binding to chromatin in cells. A673 cells were treated with either actinomycin D at 5 nM, or vehicle. After crosslinking, chromatin was sheared and EWS-FLI1-DNA complexes were immunoprecipitated using an anti-FLI1 antibody. We used primers flanking the EWS-FLI1-binding site in the promoter of the NR0B1 gene to quantify binding of EWS-FLI1. We used RPS26 and TP53 as control loci since neither are bound by EWS-FLI [15] and we have shown that RPS26 and TP53 transcript levels were unaffected by actinomycin D treatment (Figure 2F). Without actinomycin D treatment, binding of EWS-FLI1 to the NR0B1 promoter was enriched 31-fold by comparison to IgG controls (Figure 4A, DMSO). Treatment of cells with actinomycin D reduced binding of EWS-FLI1 to the NR0B1 promoter to 4-fold (p = 0.0018; Figure 4A).
# A673 = assay: MTT cell viability assay; type: cell-based; settings: Homo sapiens, 44 hours
# Experimental: (§2) Cells were seeded at a density of 1.5×10^5/ml with 100 µl/well in 96 well plates and treated with actinomycin D at 158 nM, 50 nM, 15.8 nM, 5 nM, 1.58 nM, 0.5 nM and 0 (6 wells/treatment) for 44 hours. CellTiter 96 was used to assess cell viability after a 2 hr incubation at 37°C. IC50 values were calculated using Prism.
# (§3) To determine if cells driven by EWS-FLI1 are more sensitive to actinomycin D, we assessed cell growth and viability using a MTT assay after 44 hrs exposure to actinomycin D. Although all cell lines were affected by actinomycin D, the Ewing sarcoma cell lines were as a group more sensitive by comparison to other cell lines tested (Figure 5).
# Cado-es = assay: MTT cell viability assay; type: cell-based; settings: 44 hours
# Experimental: as §2, §3
# EW-8 = assay: MTT cell viability assay; type: cell-based; settings: EW8, 44 hours
# Experimental: as §2, §3
# Hela = assay: MTT cell viability assay; type: cell-based; settings: Homo sapiens, 44 hours
# Experimental: as §2, §3
# Ovcar-3 = assay: MTT cell viability assay; type: cell-based; settings: Homo sapiens, 44 hours
# Experimental: as §2, §3
# PC-3 = assay: MTT cell viability assay; type: cell-based; settings: Homo sapiens, 44 hours
# Experimental: as §2, §3
# Skov-3 = assay: MTT cell viability assay; type: cell-based; settings: Homo sapiens, SK-OV-3, 44 hours
# Experimental: as §2, §3
# TC-32 = assay: MTT cell viability assay; type: cell-based; settings: Homo sapiens, 44 hours
# Experimental: as §2, §3
# TC-71 = assay: MTT cell viability assay; type: cell-based; settings: 44 hours
# Experimental: as §2, §3
structure (smiles),measurement,setting,value
"Cc1c2oc3c(C)ccc(C(=O)N[C@@H]4C(=O)N[C@H](C(C)C)C(=O)N5CCC[C@H]5C(=O)N(C)CC(=O)N(C)[C@@H](C(C)C)C(=O)O[C@@H]4C)c3nc-2c(C(=O)N[C@@H]2C(=O)N[C@H](C(C)C)C(=O)N3CCC[C@H]3C(=O)N(C)CC(=O)N(C)[C@@H](C(C)C)C(=O)O[C@@H]2C)c(N)c1=O [Actinomycin D] (I: T[dV]P[Sar][NMeV] / II: T[dV]P[Sar][NMeV]; ester I:1-I:C, II:1-II:C; linker I:N-II:N via Actinocin(9to1))",IC50,NR0B1 promoter,2.8 nM
same,Expression of NR0B1 and control transcripts,"NR0B1 mRNA; A673 cells, overnight, 50 nM",similarly attenuated
same,Expression of endogenous NR0B1 mRNA,"NR0B1 mRNA; A673 cells, overnight, 5 -10 nM, versus control transcripts p53 and RPS26",preferentially attenuated
same,Window between preferential effect on EWS-FLI1 and global inhibition of transcription,NR0B1 mRNA; in cells,< 10 fold
same,RPS26 and TP53 transcript levels,[1],unaffected
same,Effect on RPS26 or TP53 loci in ChIP,RPS26 and TP53 loci,did not affect
same,IC50,A673,2.5 nM
same,IC50,Cado-es,7 nM
same,IC50,EW-8,3.5 nM
same,IC50,Hela,> 20 nM
same,IC50,Ovcar-3,> 20 nM
same,IC50,PC-3,> 20 nM
same,IC50,Skov-3,> 20 nM
same,IC50,TC-32,1 nM
same,IC50,TC-71,3 nM
